Experiments:
USP8 = target: T1, USP8 (Homo sapiens, UniProt P40818); test: GST-Ub52-Flag HTRF deubiquitinating enzyme assay, USP8
T1 sequence (P40818 1-1118): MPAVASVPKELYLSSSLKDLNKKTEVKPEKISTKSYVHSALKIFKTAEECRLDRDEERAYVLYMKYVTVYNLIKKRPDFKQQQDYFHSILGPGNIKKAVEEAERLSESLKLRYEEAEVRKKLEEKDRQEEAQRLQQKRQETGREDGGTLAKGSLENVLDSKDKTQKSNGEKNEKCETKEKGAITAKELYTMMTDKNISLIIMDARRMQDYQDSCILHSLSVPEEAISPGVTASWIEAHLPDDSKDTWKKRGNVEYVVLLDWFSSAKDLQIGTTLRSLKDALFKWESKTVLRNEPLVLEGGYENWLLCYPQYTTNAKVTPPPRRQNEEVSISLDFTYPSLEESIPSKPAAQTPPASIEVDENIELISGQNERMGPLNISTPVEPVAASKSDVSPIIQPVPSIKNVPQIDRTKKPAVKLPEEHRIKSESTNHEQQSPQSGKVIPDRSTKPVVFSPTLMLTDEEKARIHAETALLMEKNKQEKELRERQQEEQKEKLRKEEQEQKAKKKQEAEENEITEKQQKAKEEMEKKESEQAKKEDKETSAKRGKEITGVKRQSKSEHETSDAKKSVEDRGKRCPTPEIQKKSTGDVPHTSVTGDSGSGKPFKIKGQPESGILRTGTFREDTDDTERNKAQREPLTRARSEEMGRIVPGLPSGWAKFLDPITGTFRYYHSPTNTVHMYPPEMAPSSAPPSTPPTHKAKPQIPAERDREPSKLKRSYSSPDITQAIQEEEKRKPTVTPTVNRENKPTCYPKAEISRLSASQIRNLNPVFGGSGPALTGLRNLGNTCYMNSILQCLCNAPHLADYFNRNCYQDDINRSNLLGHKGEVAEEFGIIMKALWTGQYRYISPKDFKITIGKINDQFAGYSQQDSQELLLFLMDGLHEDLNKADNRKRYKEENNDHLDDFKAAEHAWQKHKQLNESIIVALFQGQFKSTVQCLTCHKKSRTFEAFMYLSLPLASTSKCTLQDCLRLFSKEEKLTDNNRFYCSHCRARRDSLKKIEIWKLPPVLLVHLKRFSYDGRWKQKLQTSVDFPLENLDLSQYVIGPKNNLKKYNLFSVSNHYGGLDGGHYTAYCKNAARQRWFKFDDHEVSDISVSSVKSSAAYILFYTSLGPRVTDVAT
From the text: The cDNA encoding USP8 was obtained by PCR amplification from placenta mRNA. USP8 cDNA was subcloned by PCR into a baculovirus expression vector (pFastBac-HT; Invitrogen). A cDNA encoding a mutated USP8 was generated by mutagenic PCR. […] The sequences were ascertained by sequencing of the entire open reading frame. Bacmids encoding USP8 were generated following DH10bac transposition. The corresponding bacmids were transfected into insect cells (Sf9). Viruses were recovered from culture supernatant and amplified twice. Insect cells (Sf9 or High Five; Invitrogen) were infected for 72 hours. […] Proteins were affinity purified on metal affinity resins (Talon Metal affinity resin; BD Biosciences). Bound materials were extensively washed in wash buffer (50 mM Sodium Phosphate pH 7.0; 300 mM NaCl; 10 mM imidazole; 0.5% Triton X-100; 10% glycerol) and eluted from the resin in 250 mM imidazole-containing wash buffer. Proteins were dialyzed in dialysis buffer (Tris HCl pH 7.6 20 mM; NaCl 200 mM; DTT 1 mM; EDTA 1 mM; 10% Glycerol).
A cDNA encoding the fusion protein between ubiquitin and the ribosomal protein L40 (ub52 or uba52 or ubiquitin-L40) was amplified from human RNA using a proprietary human placenta library. The cDNA was subcloned into a bacterial expression vector (pGEX-2T, GE Healthcare), including an additional flag tag at the carboxyl end of the encoded protein.
For production and purification of recombinant proteins, the plasmid pGEX-2T-Ub52-flag was transformed into E. coli BL21 (Stratagene), grown in LB medium supplemented with 100 mg/ml ampicillin (LB ampi) at 37° C. overnight and then diluted 1/100 in LB ampi. The cells were incubated at 37° C. until an A600=0.6-0.8 was reached. After induction with 0.1 mM isopropyl-β-D-thiogalactopyranoside (IPTG), the culture was incubated at 30° C. for 180 min.
Cells were harvested by centrifugation for 15 min at 7000×g at 4° C. Bacterial pellets were lysed in NETN (Tris HCl pH 8.0; EDTA 1 mM; NP40 0.5%; protease inhibitor cocktail, PMSF 1 mM) and briefly sonicated. Insoluble material was removed by centrifugation 30 min at 14000×g. […] Briefly, soluble fraction was incubated on Glutathione beads pre-equilibrated in NETN buffer+0.5% Milk for 120 min at 4° C. Flow Through was recovered. Beads were extensively washed: the last wash was performed in Tris HCl pH 7.6 20 mM; NaCl 100 mM; MgCl2 12 mM. Elutions were performed using 20 mM Reduced Glutathione in 50 mM Tris HCl pH 8.0, NaCl 120 mM. […] Elutions were dialysed over night at 4° C. in Tris HCl pH 7.6 20 mM; NaCl 50 mM; DTT 0.5 mM.
The use of GST-Ub52-Flag is based on the time-resolved measurement of fluorescence emitted by transfer in homogenous medium.
The assay is carried out on multiwell assay plates. The plates are analyzed on a PHERAstar fluorimeter (BMG) after an overnight incubation at 4° C.
The enzyme reaction is carried out by mixing GST-Ub52-flag solution with 5 μl of USP7 solution (200 pM final) or 5 μl of USP8 (400 pM final). This mixture is incubated for one hour at room temperature on a multiwell assay plate. […] The plate is read after an overnight incubation at 4° C. on a PHERAstar fluorimeter (BMG).
The decrease in the signal correlates with the increase in enzyme activity i.e. the cleavage of GST-Ub52-Flag substrate.
Data (mean values+/−standard deviation) were analyzed as % of control (no compound) and plotted as percentage versus the Log of the compound concentration using GraphPad (Prism).

USP7 = USP7 (Homo sapiens, UniProt Q93009); test: GST-Ub52-Flag HTRF deubiquitinating enzyme assay, USP7; assay type: biochemical; design: Full-length wild-type human USP7 and its catalytic mutant; His tag (pFastBac-HT vector) (N); made in house; host or cells: Spodoptera frugiperda Sf9 (or High Five) insect cells, baculovirus; details: GST-Ub52-Flag substrate, USP7 200 pM
Procedure: Bacmid DNA was prepared by an alkaline lysis procedure. The integrity of the bacmid minipreps and their orientation were checked by PCR, using generic and specific primers. Sf9 insect cells were cultured in InsectXpress medium (Cambrex) at 27° C. and transfected with the corresponding bacmid, using GeneShuttle 40 (Q-BIOgen). Viruses were recovered in the supernatant 72 h after transfection. Viruses were amplified by infecting insect cells (Sf9 or High Five cells; invitrogen) in 50 ml InsectXpress medium in a 150 cm^2 cell culture flask with 500 μl of the supernatant from transfected Sf9 cells. Following the second round of amplification, infected cells were recovered by rapid SDS lysis, boiled for 5 min at 100° C., sonicated briefly and centrifuged for 20 min at 14,000 g.
Flow Through was recovered.

Chain of USP7 (Q93009 whole entry): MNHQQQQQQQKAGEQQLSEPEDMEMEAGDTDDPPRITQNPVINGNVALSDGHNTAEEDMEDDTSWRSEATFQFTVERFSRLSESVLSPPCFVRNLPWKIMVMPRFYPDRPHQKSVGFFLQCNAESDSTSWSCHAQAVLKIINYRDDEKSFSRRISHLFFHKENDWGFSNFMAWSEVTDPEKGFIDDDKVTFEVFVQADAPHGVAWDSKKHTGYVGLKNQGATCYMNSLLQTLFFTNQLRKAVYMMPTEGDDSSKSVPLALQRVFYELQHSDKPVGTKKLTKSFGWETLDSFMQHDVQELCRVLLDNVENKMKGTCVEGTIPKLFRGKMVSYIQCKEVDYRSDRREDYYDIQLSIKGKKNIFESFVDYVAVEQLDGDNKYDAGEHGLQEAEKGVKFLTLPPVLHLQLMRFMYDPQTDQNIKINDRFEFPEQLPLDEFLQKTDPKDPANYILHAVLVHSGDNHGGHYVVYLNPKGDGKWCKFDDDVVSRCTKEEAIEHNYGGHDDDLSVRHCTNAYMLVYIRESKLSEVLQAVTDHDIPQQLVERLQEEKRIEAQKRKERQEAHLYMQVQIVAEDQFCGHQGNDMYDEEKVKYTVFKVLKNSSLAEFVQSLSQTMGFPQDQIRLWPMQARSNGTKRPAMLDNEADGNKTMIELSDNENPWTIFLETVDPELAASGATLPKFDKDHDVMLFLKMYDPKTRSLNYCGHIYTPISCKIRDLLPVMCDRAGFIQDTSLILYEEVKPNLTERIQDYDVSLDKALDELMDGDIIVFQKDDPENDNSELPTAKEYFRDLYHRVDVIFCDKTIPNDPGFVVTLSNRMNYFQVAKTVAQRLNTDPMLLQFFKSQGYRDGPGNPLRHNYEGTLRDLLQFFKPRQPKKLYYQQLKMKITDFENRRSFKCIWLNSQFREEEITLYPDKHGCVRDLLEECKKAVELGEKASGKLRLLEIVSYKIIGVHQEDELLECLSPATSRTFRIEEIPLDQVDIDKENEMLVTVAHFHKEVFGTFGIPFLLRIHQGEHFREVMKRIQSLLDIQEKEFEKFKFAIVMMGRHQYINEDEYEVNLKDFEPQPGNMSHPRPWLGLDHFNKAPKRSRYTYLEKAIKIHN

IC50 (USP8): > 200 µM | IC50 (USP7): 224 µM
Structure (SMILES): O=C(COc1cccc(F)c1)N1CCC(O)(Cn2cnc3ccccc3c2=O)CC1 [Example 8, 3-({1-[2-(3-fluorophenoxy)acetyl]-4-hydroxypiperidin-4-yl}methyl)-3,4-dihydroquinazolin-4-one]
